Test results from patent publication US20240307426A1, “USE OF SGLT-2 INHIBITORS FOR THE PREVENTION AND/OR TREATMENT OF RENAL DISEASES IN NON-HUMAN MAMMALS” (BOEHRINGER INGELHEIM VETMEDICA GMBH, priority 2021, published 2024).

Tested on: cats with chronic kidney disease (CKD)
Assay: Exploratory clinical field trial in cats with CKD (Example 3)
Type: in vivo, cat
Parameters: key to IRIS Stage (based on serum creatinine level) / IRIS Stage (based on creatinine level) / IRIS Stage (based on the creatinine level): IRIS CKD stage assigned from serum creatinine (IRIS 2019)
Conditions: for Phosphorus: ref 0.8-2.2; for Serum creatinine: ref 0.9-2.3; for Potassium: ref 3.3-5.8; for Hematocrit: ref 28.2-52.7; for UPC: ref <0.33
Experimental: The clinical trial was conducted at three animal clinics. Overall, 9 cats with chronic kidney disease (CKD) were included in the study and treated once daily orally with 1 mg/kg bodyweight velagliflozin for up to 150 days (depending on the time of enrollment).
Diagnosis of CKD was based on two measurements of serum creatinine concentration at least 2 weeks apart from each other (historical value and screening, and value at screening in fasted cats), as recommended by the International Renal Interest Society (IRIS 2019). In order to qualify for enrollment, serum creatinine levels needed to be ≥2.2 mg/dL, but <5.0 mg/dL.
Disease staging throughout the study was performed based on serum creatinine levels in accordance with the IRIS CKD staging (IRIS 2019).
All other cats were treated for >90 days had at least data for two time points under treatment available and were therefore evaluated. Progression of the disease, as well as IRIS staging in this study was based on the most reliable biomarker: serum creatinine.

[1] = case 300-008, Visit 1 (Day 30), 1 mg/kg po once daily
[2] = case 300-008, Visit 2 (Day 90), 1 mg/kg po once daily
[3] = case 300-008, Visit 3 (Day 103), 1 mg/kg po once daily
[4] = case 300-008, screening visit (before treatment)
[5] = case 400-004, 1 mg/kg po once daily
[6] = case 400-004, 1 mg/kg po once daily, whole study
[7] = case 400-004, Visit 1 (Day 30), 1 mg/kg po once daily
[8] = case 400-004, Visit 2 (Day 90), 1 mg/kg po once daily
[9] = case 400-004, Visit 3 (Day 119), 1 mg/kg po once daily
[10] = case 400-004, screening visit (before treatment)

N#Cc1ccc([C@@H]2O[C@H](CO)[C@@H](O)[C@H](O)[C@H]2O)cc1Cc1ccc(C2CC2)cc1 [velagliflozin, Velagliflozin]
Systolic blood pressure [1]: 150.0 mmHg | Phosphorus [1]: 1.4 mmol/L | Serum creatinine [1]: 1.9 mg/dL | Potassium [1]: 4.9 mmol/L | Hematocrit [1]: 28.8% | BUN [2]: 64 mg/dL | IRIS Stage (based on creatinine level) [2]: 2 | Owner assessment - quality of life [2]: good | Owner assessment of the appetite [2]: normal | Systolic blood pressure [2]: 150.0 mmHg | Phosphorus [2]: 1.5 mmol/L | Serum creatinine [2]: 2.4 mg/dL | Potassium [2]: 4.4 mmol/L | Hematocrit [2]: 32.4% | UPC [2]: 0.2 | BUN [3]: 54 mg/dL | IRIS Stage (based on creatinine level) [3]: 2 | Owner assessment - quality of life [3]: good | Owner assessment of the appetite [3]: normal | Owner assessment of the drinking behavior [3]: normal | Systolic blood pressure [3]: 148.7 mmHg | Phosphorus [3]: 1.6 mmol/L | Serum creatinine [3]: 2.6 mg/dL | Potassium [3]: 4.4 mmol/L | Hematocrit [3]: 28.2% | UPC [3]: 0.3 | BUN [4]: 36 mg/dL | IRIS Stage (based on creatinine level) [4]: 2 | Owner assessment - quality of life [4]: good | Owner assessment of the appetite [4]: normal | Owner assessment of the drinking behavior [4]: excessive | Systolic blood pressure [4]: 148.0 mmHg | Phosphorus [4]: 1.3 mmol/L | Serum creatinine [4]: 2.4 mg/dL | Potassium [4]: 4.9 mmol/L | Hematocrit [4]: 26.7% | UPC [4]: 0.2 | adverse events [5]: One non-serious adverse event was reported (owner reported diarrhea) | expected glucosuric effect [5]: confirmed | Drinking behavior according to the owner (course) [6]: improved from excessive to normal | UPC ratio (course) [6]: remained in the normal range | condition (clinical signs and biochemical parameters) [6]: improvement of the condition | course of BUN concentration [6]: decrease | course of serum creatinine concentration [6]: decrease | serum potassium and phosphate levels [6]: remained within the reference range | total urine protein [6]: reduced | BUN [7]: 20.0 mg/dL | IRIS Stage (based on serum creatinine level) [7]: 3 | Owner assessment - quality of life [7]: good | Owner assessment of the appetite [7]: normal | Owner assessment of the drinking behavior [7]: normal | Systolic blood pressure [7]: 142.7 mmHg | Phosphorus [7]: 1.3 mmol/L | Serum creatinine [7]: 4.0 mg/dL | Potassium [7]: 3.9 mmol/L | Hematocrit [7]: 41.0% | BUN [8]: 19.3 mg/dL | IRIS Stage (based on serum creatinine level) [8]: 3 | Owner assessment - quality of life [8]: good | Owner assessment of the appetite [8]: poor | Owner assessment of the drinking behavior [8]: normal | Systolic blood pressure [8]: 157.3 mmHg | Phosphorus [8]: 1.3 mmol/L | Serum creatinine [8]: 3.2 mg/dL | Potassium [8]: 3.8 mmol/L | Hematocrit [8]: 45.0% | UPC [8]: 0.1 | BUN [9]: 24.3 mg/dL | IRIS Stage (based on serum creatinine level) [9]: 3 | Owner assessment - quality of life [9]: good | Owner assessment of the appetite [9]: normal | Owner assessment of the drinking behavior [9]: normal | Systolic blood pressure [9]: 149.3 mmHg | Phosphorus [9]: 1.5 mmol/L | Serum creatinine [9]: 2.9 mg/dL | Potassium [9]: 4.0 mmol/L | Hematocrit [9]: 45.0% | BUN [10]: 20.2 mg/dL | IRIS Stage (based on serum creatinine level) [10]: 3 | Owner assessment - quality of life [10]: good | Owner assessment of the appetite [10]: normal | Owner assessment of the drinking behavior [10]: excessive | Systolic blood pressure [10]: 151.3 mmHg | Phosphorus [10]: 1.4 mmol/L | Serum creatinine [10]: 4.2 mg/dL | Potassium [10]: 4.3 mmol/L | Hematocrit [10]: 44.0% | UPC [10]: 0.1 | Clinical signs related to CKD (evaluated cats, 1 mg/kg po once daily): either remained good/stable or improved in the majority of cats | risk factors for progression of the disease (e.g. UPC, blood pressure, potassium, phosphorus) (feline CKD patients, 1 mg/kg orally once daily): remained stable and within the reference range | IRIS staging (one of the 3 cats with decreased serum creatinine (stage 3->stage 2)): improved by one category | complications of CKD (oral 1 mg/kg bodyweight once daily, evaluated cats): no complications of CKD observed | laboratory parameters related to CKD (serum creatinine) and clinical signs (the other 4 of seven evaluated cats): stable condition
